Measured values: patent US8334135B2, “Stem cells from adipose tissue, and differentiated cells from said cells” (Yves Saint Laurent Parfums, priority 2002, dated 2012)
“Also recorded” adds a separate entry of the source.

How the values were obtained:
[1] = system: Primo 2CA cells; experiment: Glycerophosphate dehydrogenase (GPDH) activity during adipocyte differentiation of Primo 2CA cells; format: cell-based; conditions: Primo 2CA cells T24 in the presence of human bFGF
Description: (§1) The confluent cells are incubated in a DMEM/Ham's F12 (vol/vol, 1:1) medium supplemented with 100 U/ml of penicillin, 100 μg/ml of streptomycin, 5 μg/ml of human insulin (Sigma), 10 μg/ml of human transferrin (Sigma), 1 μM of PPAR activator (for example BRL49653), 100 to 250 μM of isobutyl-methylxanthine (IBMX) and 1 μM of dexamethasone. 48 to 72 hours later, this medium is replaced by the medium described above but containing no IBMX and dexamethasone. This differentiation medium is replaced every 2-3 days for a period of 15 to 20 days corresponding to an optimum adipocyte differentiation. Firstly, the cells which are to have the GPDH activity measure, are lysed. […] The reading is made with a spectrophotometer, allowing kinetic measurements to be carried out (KONTRON Uvicon 860 thermostatted at 37° C.).

[2] = system: Primo 2CS cells; experiment: Glycerophosphate dehydrogenase (GPDH) activity during adipocyte differentiation of Primo 2CS cells; format: cell-based; conditions: Primo 2CS cells T22 in the presence of human bFGF; after 13 days of differentiation (3 experiments); control 22
Description: as §1

[3] = system: adipocytes obtained from Primo 2CA T32 cells; experiment: Lipolysis test (glycerol liberated by adipocytes in the presence of adrenergic receptor agonists); format: cell-based, human; conditions: adipocytes from Primo 2CA T32 cells (about 140 population doublings); control 5.76
Description: Lipolyses were carried out on adipocytes obtained from Primo 2CA T32 cells (about 140 population doublings), with agonists specific for different β-adrenergic receptors.
This test consists of measuring the radiolabelled glycerol liberated by adipocytes in the presence of adrenergic receptor agonists. The method used is that described by Bradley D C and Kaslow H R (Anal Biochem, 1989, 180, 11-16). The glycerol liberated is phosphorylated in the presence of glycerokinase and ATP and ATP labeled with ^32P in the […]. The residual ATP is then hydrolyzed in an acid medium at 90° C. and precipitated with ammonium molybdate and triethylamine. The radioactivity incorporated in the form of glycerophosphate labelled with ^32P is estimated by counting in a β counter and the values are expressed in pmol using a calibration curve.
Lipolyses were carried out on Primo 2CA T32 cells with specific agonists for the different β adrenergic receptors, namely: • Isoproterenol: β1, β2 adrenergic • Dobutamine: β1 adrenergic • Terbutaline: β2 adrenergic • CL316243 β3 adrenergic: […]

[4] = system: stem cells of the invention; experiment: Effect of Leukemia Inhibitory Factor on morphology and proliferation of the stem cells; format: cell-based, human; conditions: LIF 10 ng/ml
Description: For this enrichment step, different culture media were tested.

[5] = system: CA population; experiment: Effect of bFGF on proliferation of the quiescent CA population; format: cell-based, human
Description: The addition of growth factors such as bFGF incorporated, for example, at a concentration of about 3 to 20 ng/ml of medium, in particular 5 to 10 ng/ml, not only halves the population doubling time (for example the population doubling time without bFGF is about 72 hours, while it is about 36 hours with bFGF), but also allows the population to reach confluence. Without growth factors, proliferation of a quiescent population of stem cells of the invention can be provoked by trypsination and dilution, but proliferation will spontaneously stop at about 70% confluence. Since confluence is indispensable in vitro for initiating the differentiation of many cell types, the use of growth factors such as bFGF must be envisaged for in vitro production of this type of differentiated cell.
These observations confirm the quiescent state of the CA population and the state of senescence in the CS population.
After establishing a population of quiescent CA cells, human bFGF (basic Fibroblast Growth Factor) is added to the culture medium described above in a concentration of 5 ng/ml of medium.

[6] = system: CS population; experiment: Effect of bFGF on proliferation of the CS population at late stages; format: cell-based, human; conditions: bFGF 5 ng/ml, after 50 population doublings

## CN(CCOc1ccc(CC2SC(=O)NC2=O)cc1)c1ccccn1 (stereo not shown) [BRL49653]
[1]; after 11 days of differentiation (2 experiments), control 77
  GPDH activity: 290 nmol/min/mg of protein
[1]; after 16 days of differentiation (3 experiments), control 20
  GPDH activity: 390 nmol/min/mg of protein
[2]
  GPDH activity: 30 nmol/min/mg of protein

## C[C@H](Cc1ccc2c(c1)OC(C(=O)[O-])(C(=O)[O-])O2)NC[C@H](O)c1cccc(Cl)c1.[Na+].[Na+] [CL316243]
[3]
  lipolysis rate: 17.1 nmol/h/mg of protein

## CC(CCc1ccc(O)cc1)NCCc1ccc(O)c(O)c1 (stereo not shown) [Dobutamine]
[3]
  lipolysis rate: 60.1 nmol/h/mg of protein

## CC(C)(C)NCC(O)c1cc(O)cc(O)c1 (stereo not shown) [Terbutaline]
[3]
  lipolysis rate: 93.78 nmol/h/mg of protein

## LIF: Leukemia Inhibitory Factor
[4]
  effect on morphology or proliferation of the cells: no change in the morphology or proliferation; also recorded: no changes in morphology or proliferation

## bFGF: human basic Fibroblast Growth Factor
[5]; bFGF 5 ng/ml, late stages, after 50 population doublings
  effect on proliferation of CA population: effectively respond
[5]; with bFGF (about 3 to 20 ng/ml), about 72 hours without bFGF
  population doubling time: about 36 hours
[6]
  effect on proliferation of CS population: no significant effect; also recorded: practically no effect
